# Patent US4687780A, “Anti-tumor compounds of platinum” (Johnson Matthey PLC, priority 1985, dated 1987)
# Legend:
# L1210 leukaemia = assay: anti-tumor activity against L1210 leukaemia in CDF1 male mice, i.p. single dose Day 1; format: in vivo; parameters: median survival time (MST): unit not given here; conditions: for % T/C (MST/MST control×100) / median survival time (MST): single dose Day 1; for average weight change (AWC): by Day 5
# Description: (§1) Compounds according to the invention were screened for anti-tumor activity against L1210 leukaemia and B16 melanoma in mice. The compounds were administered intraperitoneally as solutions or suspensions in water and "Tween" 80 as carrier to CDF1 male mice (L1210) and BDF1 female mice (B16). […] For each dose level, results are quoted in terms of median survival time (MST); the comparative effect (i.e. MST/MST control×100); average weight change (AWC) by Day 5 (L1210) or Day 6 (B16); and the number of mice alive (MA) at Day 5 (L1210) or Day 10 (B16).
# (§2) Results were as follows for the compounds as prepared in Examples 3 and 4.
# 1. L1210 (1×10^6 cells): treatment consisted of single dose on Day 1.
# B16 melanoma = assay: anti-tumor activity against B16 melanoma in BDF1 female mice, i.p. 9 daily doses; format: in vivo; parameters: median survival time (MST): unit not given here; conditions: for % T/C (MST/MST control×100) / median survival time (MST): 9 daily doses from Day 1; for average weight change (AWC): by Day 6
# Description: as §1, §2
# 2. B16 (0.5 ml 10% BREI): treatment consisted of 9 daily doses beginning at Day 1.
# [1] = pharmacokinetic tests: Pt in blood and cumulative percentage dose in urine, cage wash and faeces after oral administration; format: in vivo, female Balb C^- mice
# Description: (§3) Additionally, the same compounds were tested for activity against ADJ/PC6A plasmacytoma grown subcutaneously in female Balb C^- mice following oral administration as a suspension in arachis oil. Dosage levels were at 100μ mole/kg of body weight for pharmacokinetic tests to establish the extent of absorption into the systemic circulation.
# (§4) Results are presented in terms of concentration (μg/ml) of Pt in the blood and cumulative percentage dose in urine, cage wash and faeces, all after specified time intervals. Results for anti-tumor effect are expressed as LD50 (mg/kg), ED90 (mg/kg), and TI (LD50 /ED90). The figures for LD50 (the dose level causing 50% deaths) and ED90 (the dose level causing a 90% reduction in tumor size) are determined by administering dosage levels ranging from lethal to non-tumor inhibitory. The therapeutic index (TI) is an indication of the selectivity of the compound as an anti-tumor agent.
# ADJ/PC6A plasmacytoma = assay: activity against ADJ/PC6A plasmacytoma grown subcutaneously in mice, oral administration; format: in vivo, female Balb C^- mice; conditions: for ED90 (dose level causing a 90% reduction in tumor size): suspension in arachis oil
# Description: as §3, §4
# [2] = LD50 (dose level causing 50% deaths), oral administration; format: in vivo, female Balb C^- mice; conditions: suspension in arachis oil
# Description: as §3, §4
# malignant tumor = conditions: certain forms of malignant tumor in humans; cited from earlier work
compound,measurement,setting,value
"[NH2][Pt]1([NH]C2CCCC2)[O]C(=O)C2(CCC2)C(=O)[O]1 [Ex. 4, ammine(cyclobutane-1,1-dicarboxylato)cyclopentylamine platinum(II)]",% T/C (MST/MST control×100),L1210 leukaemia; 40 mg/kg i.p.,154%
same,median survival time (MST),L1210 leukaemia; 40 mg/kg i.p.,10.0
same,% T/C (MST/MST control×100),L1210 leukaemia; 80 mg/kg i.p.,177%
same,median survival time (MST),L1210 leukaemia; 80 mg/kg i.p.,11.5
same,% T/C (MST/MST control×100),L1210 leukaemia; 120 mg/kg i.p.,177%
same,median survival time (MST),L1210 leukaemia; 120 mg/kg i.p.,11.5
same,% T/C (MST/MST control×100),L1210 leukaemia; 160 mg/kg i.p.,192%
same,median survival time (MST),L1210 leukaemia; 160 mg/kg i.p.,12.5
same,number of mice alive (MA),"L1210 leukaemia; mouse, in vivo",6/6
same,% T/C (MST/MST control×100),B16 melanoma; 8 mg/kg,115%
same,median survival time (MST),B16 melanoma; 8 mg/kg,22.5
same,% T/C (MST/MST control×100),B16 melanoma; 13 mg/kg i.p.,133%
same,median survival time (MST),B16 melanoma; 13 mg/kg i.p.,26.0
same,% T/C (MST/MST control×100),B16 melanoma; 20 mg/kg i.p.,149%
same,median survival time (MST),B16 melanoma; 20 mg/kg i.p.,29.0
same,% T/C (MST/MST control×100),B16 melanoma; 30 mg/kg i.p.,164%
same,median survival time (MST),B16 melanoma; 30 mg/kg i.p.,32.0
same,number of mice alive (MA),"B16 melanoma; mouse, in vivo",10/10
same,Blood conc. of Pt,"[1]; mouse, in vivo, po, 1 h",0.88 ± 0.05 μg/ml of whole blood
same,Blood conc. of Pt,"[1]; mouse, in vivo, po, 2 h",1.21 ± 0.16 μg/ml of whole blood
same,Blood conc. of Pt,"[1]; mouse, in vivo, po, 4 h",0.82 ± 0.12 μg/ml of whole blood
same,Blood conc. of Pt,"[1]; mouse, in vivo, po, 7 h",0.32 ± 0.05 μg/ml of whole blood
same,Blood conc. of Pt,"[1]; mouse, in vivo, po, 24 h",0.20 ± 0.03 μg/ml of whole blood
same,Cage wash (cumulative %),"[1]; mouse, in vivo, po, 24 h",7.1 ± 0.7%
same,Faeces dose (cumulative %),"[1]; mouse, in vivo, po, 24 h",57.6 ± 3.5%
same,Urine dose (cumulative %),"[1]; mouse, in vivo, po, 24 h",16.8 ± 2.4%
same,Blood conc. of Pt,"[1]; mouse, in vivo, po, 48 h",0.20 ± 0.03 μg/ml of whole blood
same,Cage wash (cumulative %),"[1]; mouse, in vivo, po, 48 h",8.0 ± 0.9%
same,Faeces dose (cumulative %),"[1]; mouse, in vivo, po, 48 h",59.8 ± 3.6%
same,Urine dose (cumulative %),"[1]; mouse, in vivo, po, 48 h",18.2 ± 2.4%
same,therapeutic index TI (LD50/ED90),ADJ/PC6A plasmacytoma,32
same,ED90 (dose level causing a 90% reduction in tumor size),ADJ/PC6A plasmacytoma,50 mg/kg
same,LD50 (dose level causing 50% deaths),[2],1600 mg/kg
"N.N.[Cl][Pt][Cl] [cisplatin, cis-diamminedichloroplatinum(II), reference compound]",% T/C (MST/MST control×100),L1210 leukaemia; 4 mg/kg,146%
same,median survival time (MST),L1210 leukaemia; 4 mg/kg,9.5
same,number of mice alive (MA),"L1210 leukaemia; 4 mg/kg, single dose, at Day 5",6/6
same,average weight change (AWC),"L1210 leukaemia; 4 mg/kg, single dose",-0.8 g
same,% T/C (MST/MST control×100),L1210 leukaemia; 6 mg/kg,169%
same,median survival time (MST),L1210 leukaemia; 6 mg/kg,11.0
same,number of mice alive (MA),"L1210 leukaemia; 6 mg/kg, single dose, at Day 5",6/6
same,average weight change (AWC),"L1210 leukaemia; 6 mg/kg, single dose",-3.2 g
same,% T/C (MST/MST control×100),L1210 leukaemia; 8 mg/kg,192%
same,median survival time (MST),L1210 leukaemia; 8 mg/kg,12.5
same,number of mice alive (MA),"L1210 leukaemia; 8 mg/kg, single dose, at Day 5",6/6
same,average weight change (AWC),"L1210 leukaemia; 8 mg/kg, single dose",-4.6 g
same,% T/C (MST/MST control×100),L1210 leukaemia; 10 mg/kg,123%
same,median survival time (MST),L1210 leukaemia; 10 mg/kg,8.0
same,number of mice alive (MA),"L1210 leukaemia; 10 mg/kg, single dose, at Day 5",6/6
same,average weight change (AWC),"L1210 leukaemia; 10 mg/kg, single dose",-4.7 g
same,% T/C (MST/MST control×100),B16 melanoma; 0.4 mg/kg,131%
same,median survival time (MST),B16 melanoma; 0.4 mg/kg,25.5
same,number of mice alive (MA),"B16 melanoma; 0.4 mg/kg, 9 daily doses, at Day 10",10/10
same,average weight change (AWC),"B16 melanoma; 0.4 mg/kg, 9 daily doses",-0.9 g
same,% T/C (MST/MST control×100),B16 melanoma; 0.8 mg/kg,164%
same,median survival time (MST),B16 melanoma; 0.8 mg/kg,32.0
same,number of mice alive (MA),"B16 melanoma; 0.8 mg/kg, 9 daily doses, at Day 10",10/10
same,average weight change (AWC),"B16 melanoma; 0.8 mg/kg, 9 daily doses",-1.5 g
same,% T/C (MST/MST control×100),B16 melanoma; 1.6 mg/kg,187%
same,median survival time (MST),B16 melanoma; 1.6 mg/kg,36.5
same,number of mice alive (MA),"B16 melanoma; 1.6 mg/kg, 9 daily doses, at Day 10",10/10
same,average weight change (AWC),"B16 melanoma; 1.6 mg/kg, 9 daily doses",-3.1 g
same,% T/C (MST/MST control×100),B16 melanoma; 2.4 mg/kg,231%
same,median survival time (MST),B16 melanoma; 2.4 mg/kg,45.0
same,number of mice alive (MA),"B16 melanoma; 2.4 mg/kg, 9 daily doses, at Day 10",10/10
same,average weight change (AWC),"B16 melanoma; 2.4 mg/kg, 9 daily doses",-3.9 g
same,ED90 (dose level causing a 90% reduction in tumor size),ADJ/PC6A plasmacytoma,24 mg/kg
same,treatment of malignant tumor,malignant tumor,effective for the treatment of certain forms of malignant tumor in humans
"N.NC1CCCCC1.O=C([O-])C1(C(=O)[O-])CCC1.[Pt+2] [Ex. 3, ammine(cyclobutane-1,1-dicarboxylato)cyclohexylamine platinum(II)]",% T/C (MST/MST control×100),L1210 leukaemia; 40 mg/kg i.p.,154%
same,median survival time (MST),L1210 leukaemia; 40 mg/kg i.p.,10.0
same,number of mice alive (MA),"L1210 leukaemia; 40 mg/kg i.p., single dose, at Day 5",5/5
same,average weight change (AWC),"L1210 leukaemia; 40 mg/kg i.p., single dose",-0.1 g
same,% T/C (MST/MST control×100),L1210 leukaemia; 80 mg/kg i.p.,185%
same,median survival time (MST),L1210 leukaemia; 80 mg/kg i.p.,12.0
same,number of mice alive (MA),"L1210 leukaemia; 80 mg/kg i.p., single dose, at Day 5",6/6
same,average weight change (AWC),"L1210 leukaemia; 80 mg/kg i.p., single dose",-2.4 g
same,% T/C (MST/MST control×100),L1210 leukaemia; 120 mg/kg i.p.,185%
same,median survival time (MST),L1210 leukaemia; 120 mg/kg i.p.,12.0
same,number of mice alive (MA),"L1210 leukaemia; 120 mg/kg i.p., single dose, at Day 5",6/6
same,average weight change (AWC),"L1210 leukaemia; 120 mg/kg i.p., single dose",-0.6 g
same,% T/C (MST/MST control×100),L1210 leukaemia; 160 mg/kg i.p.,231%
same,median survival time (MST),L1210 leukaemia; 160 mg/kg i.p.,15.0
same,number of mice alive (MA),"L1210 leukaemia; 160 mg/kg i.p., single dose, at Day 5",5/6
same,average weight change (AWC),"L1210 leukaemia; 160 mg/kg i.p., single dose",-4.5 g
same,% T/C (MST/MST control×100),B16 melanoma; 6 mg/kg i.p.,136%
same,median survival time (MST),B16 melanoma; 6 mg/kg i.p.,26.5
same,number of mice alive (MA),"B16 melanoma; 6 mg/kg i.p., 9 daily doses, at Day 10",10/10
same,average weight change (AWC),"B16 melanoma; 6 mg/kg i.p., 9 daily doses",-0.3 g
same,% T/C (MST/MST control×100),B16 melanoma; 12 mg/kg i.p.,149%
same,median survival time (MST),B16 melanoma; 12 mg/kg i.p.,29.0
same,number of mice alive (MA),"B16 melanoma; 12 mg/kg i.p., 9 daily doses, at Day 10",10/10
same,average weight change (AWC),"B16 melanoma; 12 mg/kg i.p., 9 daily doses",-1.0 g
same,% T/C (MST/MST control×100),B16 melanoma; 18 mg/kg i.p.,174%
same,median survival time (MST),B16 melanoma; 18 mg/kg i.p.,34.0
same,number of mice alive (MA),"B16 melanoma; 18 mg/kg i.p., 9 daily doses, at Day 10",10/10
same,average weight change (AWC),"B16 melanoma; 18 mg/kg i.p., 9 daily doses",-1.6 g
same,% T/C (MST/MST control×100),B16 melanoma; 24 mg/kg i.p.,177%
same,median survival time (MST),B16 melanoma; 24 mg/kg i.p.,34.5
same,number of mice alive (MA),"B16 melanoma; 24 mg/kg i.p., 9 daily doses, at Day 10",10/10
same,average weight change (AWC),"B16 melanoma; 24 mg/kg i.p., 9 daily doses",-1.4 g
same,Blood conc. of Pt,"[1]; 1 hr, oral, 100μ mole/kg, suspension in arachis oil",0.62 ± 0.11 μg/ml of whole blood
same,Blood conc. of Pt,"[1]; 2 hrs, oral, 100μ mole/kg, suspension in arachis oil",0.80 ± 0.08 μg/ml of whole blood
same,Blood conc. of Pt,"[1]; 4 hrs, oral, 100μ mole/kg, suspension in arachis oil",0.64 ± 0.03 μg/ml of whole blood
same,Blood conc. of Pt,"[1]; 7 hrs, oral, 100μ mole/kg, suspension in arachis oil",0.51 ± 0.09 μg/ml of whole blood
same,Cage wash (cumulative %),"[1]; 24 hrs, oral, 100μ mole/kg",5.1 ± 1.2%
same,Faeces dose (cumulative %),"[1]; 24 hrs, oral, 100μ mole/kg",57.0 ± 14.1%
same,Urine dose (cumulative %),"[1]; 24 hrs, oral, 100μ mole/kg",11.4 ± 2.1%
same,Blood conc. of Pt,"[1]; 24 hrs, oral, 100μ mole/kg, suspension in arachis oil",0.16 ± 0.05 μg/ml of whole blood
same,Cage wash (cumulative %),"[1]; 48 hrs, oral, 100μ mole/kg",6.4 ± 1.8%
same,Faeces dose (cumulative %),"[1]; 48 hrs, oral, 100μ mole/kg",62.1 ± 13.7%
same,Urine dose (cumulative %),"[1]; 48 hrs, oral, 100μ mole/kg",12.8 ± 1.8%
same,Blood conc. of Pt,"[1]; 48 hrs, oral, 100μ mole/kg, suspension in arachis oil",0.16 ± 0.03 μg/ml of whole blood
same,therapeutic index TI (LD50/ED90),ADJ/PC6A plasmacytoma,22
same,ED90 (dose level causing a 90% reduction in tumor size),ADJ/PC6A plasmacytoma,73 mg/kg
same,LD50 (dose level causing 50% deaths),[2],1600 mg/kg
